What all share (experiment): NCI anticancer screen, dose series, 48 h
Test [1] deals with HCT-15 colon.
Test [2] deals with SW-620 colon.
Test [3] concerns RPMI-8226 leukemia.
Test [4] relates to RXF 393 renal.
In test [5] the test system is 786-0 renal.
In test [6] the test system is NCI-H226 lung.
In test [7] the test system is LOX IMVI melanoma.
Test [8] relates to UO-31 renal.
In test [9] the test system is IGROV1 ovarian.
Test [10] relates to HS 578T breast.

Values joined by “and” are separate entries in the source; they are usually repeats but may differ in a detail not shown here. Identical values can stand only once.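 The compound was tested at five concentrations on cells cultured in 96-well plates, with a 48-hour exposure period. Abbreviation: GI50, concentration required for 50% inhibition of growth. Definition used: TGI = concentration required for complete inhibition of growth.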

Consider `CN1c2ccccc2C(=O)Nc2cnc(Cl)nc21`, for which the TGI in test [1], in [2], in test [3], in test [4], in test [5] and in test [6] was more than 100 µM each time. In addition, the TGI in test [7], in test [8] and in test [9] was more than 100 µM throughout.
As for `O=C1CC2Sc3ccccc3N=C2N1c1ccc(Cl)cc1Cl` (configuration not stated), the TGI in [2], in test [3], in test [4], in test [5], in [6] and in [7] was more than 100 µM each time. The TGI in [8] and in test [9] was more than 100 µM throughout.
Turning to `Cc1cc2c(cc1Cl)SC1=NN(C)C(c3ccccc3O)N1S2(=O)=O` (configuration not stated), the GI50 in test [1] was 54 µM; in [2], 94.5 µM; in test [3], more than 100 µM; in test [5] it was more than 100 µM; in test [6] it was more than 100 µM; in [7] it was 40.5 µM. The results for the GI50 in [8], in test [10] and in [9] were 53.7 µM, more than 100 µM and 77.8 µM, respectively. For the same compound, the TGI in test [1], in test [2], in [3], in [5], in [6] and in test [7] was more than 100 µM each time. In addition, the TGI in [8], in test [10] and in test [9] was more than 100 µM each time.
Consider `N#CC(=C=[N-])[n+]1ccc(Cl)cc1`, for which the TGI in test [1] is 28.6 µM; in test [2], 23.4 µM; in test [3], 60.7 µM; in test [4], 31.5 µM; in test [5], 37.2 µM; in test [6], 66.7 µM. For the same compound, the TGI came out at 26.2 µM in test [7], 59.9 µM in test [8] and 36.4 µM in [9].
With `Cc1cc(N)c2ccccc2[n+]1CCCCCCCCCC[n+]1c(C)cc(N)c2ccccc21`, the GI50 in test [1] is 1.25 µM and 3.67 µM; in test [2], 0.508 µM; in [3], 0.0435 µM and 0.324 µM; in test [5] it was 0.512 µM and 3.75 µM; in [6] it was 0.576 µM and 1.11 µM; in [8] it was 0.954 µM and 2.84 µM. The GI50 in test [10] is 0.303 µM; in [9], 0.538 µM and 2.17 µM. Besides, the TGI in test [1] was > 50 µM and 25.9 µM and 81.9 µM; in test [2] it was > 50 µM and 33.9 µM and > 100 µM; in [3], 0.859 µM and 2.61 µM and 2.71 µM; in test [5], 10.9 µM and 21.3 µM and 25.5 µM; in [6] it was > 50 µM and 22.7 µM and 5.29 µM; in test [7], 2.29 µM. The TGI in test [8] was > 50 µM and 12.9 µM and 14 µM; in [10], > 19.2 µM and 29.6 µM.
`C/C(=N/Nc1ccc([N+](=O)[O-])cc1[N+](=O)[O-])C(CC(C(=O)Nc1ccccc1C)/C(C)=N\Nc1ccc([N+](=O)[O-])cc1[N+](=O)[O-])C(=O)Nc1ccccc1C` (configuration not stated): the TGI in test [1] was more than 63.5 µM; in [2] it was 42.3 µM; in [3], more than 69.3 µM; in test [4], 24.3 µM; in test [5], 41.3 µM; in [6] it was 19.3 µM. In addition, the TGI is 36 µM in [7], 39.9 µM in [8] and 32.1 µM in test [9].
For the compound `CN1C(=O)C23CC4=CC=CC(O)C4N2C(=O)C1(CO)SS3` (configuration not stated), the TGI came out at 0.419 µM in test [1]; 0.634 µM in test [2]; 0.591 µM in [3]; 0.38 µM in [4]; 0.222 µM in test [5]; 0.152 µM in test [6]. Also, the TGI in test [7] was found to be 0.492 µM; in [8], 2.03 µM; in test [9], 0.297 µM.
With `Cc1csc(Nc2nc(-c3cccc(Cl)c3)nc(C(Cl)(Cl)Cl)n2)n1`, the GI50 in test [1] is 4.46 µM; in [2], 2.21 µM; in test [3], 1.22 µM; in test [4], 1.12 µM; in [5], 11 µM; in test [6], more than 33.3 µM. The GI50 in test [8] is 2.38 µM; in test [10] it was 1.79 µM; in [9] it was 15.7 µM. In addition, the TGI is more than 33.3 µM in test [1]; more than 33.3 µM in [2]; more than 33.3 µM in test [3]; 6.44 µM in test [4]; more than 33.3 µM in [5]; more than 33.3 µM in test [6]. The TGI is 15.7 µM in [8], 13.2 µM in test [10] and more than 33.3 µM in test [9].
As to `CC(C)=C1CCC(CN2CCCC2)C1=O` (configuration not stated), the TGI in test [1] is 35.5 µM; in test [2] it was 47.5 µM; in [3], 37.8 µM; in [4], 39.5 µM; in test [5], 30.8 µM; in test [6], more than 100 µM. Besides, the TGI was more than 100 µM in test [7], 36.1 µM in test [8] and more than 100 µM in test [9].
As to `O=c1c2cc(F)ccc2sc2c(NCCCN3CCCC3)nc3ccccc3c12`, the GI50 was 1.82 µM in test [1]; 2.33 µM in [4]; 1.61 µM in test [5]; 3.37 µM in [6]; 1.73 µM in test [7]; 1.59 µM in test [8]. Moreover, the GI50 in test [10] was 2.18 µM; in [9], 1.84 µM. Further, the TGI in [1] is 3.53 µM; in test [4], 8.67 µM; in [5], 3.08 µM; in test [6], 15.4 µM; in test [7] it was 3.28 µM; in [8], 4.18 µM. Besides, the TGI in [10] was 6.22 µM; in test [9], 3.85 µM.
As for `CCCCCCCCCCCCCCCCCC1=NC(C)(C)CN1CCO`, the GI50 in test [1] was 1.61 µM; in [2], 1.75 µM; in [5], 1.73 µM; in test [6], 2.84 µM; in test [7], 1.54 µM; in test [8] it was 1.57 µM. Further, the GI50 in [10] is 1.66 µM; in [9], 1.56 µM. Moreover, the TGI was determined as 3 µM in [1]; 3.21 µM in [2]; 3.2 µM in test [5]; 9.04 µM in [6]; 2.87 µM in test [7]; 3.05 µM in test [8]. Further, the TGI came to 3.93 µM in [10] and 3.11 µM in test [9].

The values above are taken from PubChem BioAssay (NCI).
